Test: recombinant UMI read abundance after kanamycin selection (control-corrected) (log10(CPM+1)); higher = more efficient recombination; extreme values may be limits of the assay; sequences stand for … in AGTGCAGAGAAAATCGGCCAGTTTTCTCTGCCTGCAGTCCGCATGCCGTGGGACCCCTTGGGTTCTAACCTGTTGCCTAGATTTATGCAGCGGACTGCCTTTCTCCCAAAGTGATAAACCGG…AGGTTGGTTTCACT; site = the 11-nt donor
Method in brief: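 Counts of recombinant UMIs were reported as log10(CPM+1). Before that, they were converted to CPM, averaged over replicates and scaled using control-derived factors. They came from PCR across the donor–target junction after Escherichia coli carrying the pair library and target plasmid was plated on IPTG (0.07 mM) plus kanamycin, or unselected, in two replicates each.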
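Further: IS621 bridge recombinase in Escherichia coli cells against a fixed T5 target plasmid.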

Sequence | recombinant UMI read abundance (log10)
CAGGAACCATGGACCGGTTTTCCCGGTAATCCGTATTTGAT (site CGGGAACCTAT) | 0
CAGGAACCATGGACCGGTTTTCCCGGTAATCCGTATTTGAT (site CTGGAACCTAT) | 0
CAGGACTCATGGACCGGTTTTCCCGGTAATCCGTATTTGTC (site CAGGACTCTGA) | 3.38
CAGGGGTCATGGACCGGTTTTCCCGGTAATCCGTATTTGTA (site CAGGGGTCTTA) | 3.37
CAGTAACCATGGACCGGTTTTCCCGGTAATCCGTATTTGAA (site CAGTAACCTTT) | 0.255
CAGTAACCATGGACCGGTTTTCCCGGTAATCCGTATTTGGA (site CAGTAACCTTC) | 0.00404
CAGTACACATGGACCGGTTTTCCCGGTAATCCGTATTTGAC (site CAGTACACTGT) | 3.63
CAGTAGACATGGACCGGTTTTCCCGGTAATCCGTATTTGTC (site CAGTAGACTGA) | 2.13
CAGTAGGCATGGACCGGTTTTCCCGGTAATCCGTATTTGCA (site CAGTAGGCTTG) | 2.82
CAGTCACCATGGACCGGTTTTCCCGGTAATCCGTATTTGTA (site CAGTCACCTTA) | 0.0069
CAGTCCTCATGGACCGGTTTTCCCGGTAATCCGTATTTGAA (site CAGTCCTCTTT) | 1.96
CAGTCGACATGGACCGGTTTTCCCGGTAATCCGTATTTGAG (site CAGTCGACTCA) | 0.00421
CAGTCGACATGGACCGGTTTTCCCGGTAATCCGTATTTGAG (site CAGTCGACTCC) | 0.0115
CAGTCGACATGGACCGGTTTTCCCGGTAATCCGTATTTGAG (site CAGTCGACTCG) | 0.00367
CAGTCGACATGGACCGGTTTTCCCGGTAATCCGTATTTGAG (site CAGTCGACTCT) | 0.855
CAGTCGGCATGGACCGGTTTTCCCGGTAATCCGTATTTGGG (site CAGTCGACTCC) | 0.027
CAGTCGGCATGGACCGGTTTTCCCGGTAATCCGTATTTGGG (site CAGTCGCCTCC) | 0.0091
CAGTCGGCATGGACCGGTTTTCCCGGTAATCCGTATTTGGG (site CAGTCGGCTCC) | 0.157
CAGTCGGCATGGACCGGTTTTCCCGGTAATCCGTATTTGGG (site CAGTCGTCTCC) | 0.0153

Sequence | recombinant UMI read abundance (log10)
CAGTCGGCATGGACCGGTTTTCCCGGTAATCCGTATTTGGT (site CAGTCGGCTAC) | 0.814
CAGTGTACATGGACCGGTTTTCCCGGTAATCCGTATTTGCA (site CAGTGTACTTG) | 2.48
CAGTTACCATGGACCGGTTTTCCCGGTAATCCGTATTTGCC (site CAGTTACCTGG) | 0
CAGTTCTCATGGACCGGTTTTCCCGGTAATCCGTATTTGGC (site CAGTTCTCTGC) | 3.27
CAGTTGCCATGGACCGGTTTTCCCGGTAATCCGTATTTGGT (site CAGTTGCCTAC) | 0.0159
CAGTTGTCATGGACCGGTTTTCCCGGTAATCCGTATTTGCG (site CAGTTGTCTCG) | 3.14
CATAACCCATGGACCGGTTTTCCCGGTAATCCGTATTTGAT (site CATAACCCTAT) | 1.19
CATAATCCATGGACCGGTTTTCCCGGTAATCCGTATTTGTT (site CATAATCCTAA) | 0.529
CATAATCCATGGACCGGTTTTCCCGGTAATCCGTATTTGTT (site CGGAATCCTAA) | 0.00373
CATAGCACATGGACCGGTTTTCCCGGTAATCCGTATTTGTA (site CATAGCACTTA) | 1.96
CATATCCCATGGACCGGTTTTCCCGGTAATCCGTATTTGAC (site CATATCCCTGT) | 0.73
CATCACACATGGACCGGTTTTCCCGGTAATCCGTATTTGGG (site CATCACACTCC) | 0.0249
CATCGCCCATGGACCGGTTTTCCCGGTAATCCGTATTTGGT (site CATCGCCCTAC) | 0.296
CATCTGACATGGACCGGTTTTCCCGGTAATCCGTATTTGCG (site CATCTGACTCG) | 1.45
CATCTGTCATGGACCGGTTTTCCCGGTAATCCGTATTTGAC (site CATCTGTCTGT) | 0
CATCTTGCATGGACCGGTTTTCCCGGTAATCCGTATTTGGT (site CATCTTGCTAC) | 0.825
CATGACTCATGGACCGGTTTTCCCGGTAATCCGTATTTGTT (site CATGACTCTAA) | 2.08
CATGCCTCATGGACCGGTTTTCCCGGTAATCCGTATTTGTG (site CATGCCTCTCA) | 1.43
CATGGCTCATGGACCGGTTTTCCCGGTAATCCGTATTTGCG (site CATGGCTCTCG) | 2.15

Sequence | recombinant UMI read abundance (log10)
CATGTAACATGGACCGGTTTTCCCGGTAATCCGTATTTGCT (site AATGTAACTAG) | 0.624
CATGTAACATGGACCGGTTTTCCCGGTAATCCGTATTTGCT (site CATGTAACTAG) | 2.28
CATGTAACATGGACCGGTTTTCCCGGTAATCCGTATTTGCT (site GATGTAACTAG) | 0.28
CATGTAACATGGACCGGTTTTCCCGGTAATCCGTATTTGCT (site TATGTAACTAG) | 0.869
CATGTGTCATGGACCGGTTTTCCCGGTAATCCGTATTTGAC (site AATGTGTCTGT) | 0
CATGTGTCATGGACCGGTTTTCCCGGTAATCCGTATTTGAC (site CATGTGTCTGT) | 0.602
CATGTGTCATGGACCGGTTTTCCCGGTAATCCGTATTTGAC (site GATGTGTCTGT) | 0
CATGTGTCATGGACCGGTTTTCCCGGTAATCCGTATTTGAC (site TATGTGTCTGT) | 0.00981
CATGTTCCATGGACCGGTTTTCCCGGTAATCCGTATTTGTG (site CATGTTCCTCA) | 0.0131
CATTAGTCATGGACCGGTTTTCCCGGTAATCCGTATTTGTT (site CATTAGTCTAA) | 2.03
CATTCAACATGGACCGGTTTTCCCGGTAATCCGTATTTGCC (site CATTCAACTGG) | 0.426
CATTCCTCATGGACCGGTTTTCCCGGTAATCCGTATTTGCC (site CAATCCTCTGG) | 1.59
CATTCCTCATGGACCGGTTTTCCCGGTAATCCGTATTTGCC (site CACTCCTCTGG) | 1.09
CATTCCTCATGGACCGGTTTTCCCGGTAATCCGTATTTGCC (site CAGTCCTCTGG) | 0
CATTCCTCATGGACCGGTTTTCCCGGTAATCCGTATTTGCC (site CATTCCTCTGG) | 1.47
CATTCGACATGGACCGGTTTTCCCGGTAATCCGTATTTGCG (site CATTCGACTCG) | 0.32
CATTGACCATGGACCGGTTTTCCCGGTAATCCGTATTTGAG (site CATTGACCTCT) | 0.0215
CATTGCACATGGACCGGTTTTCCCGGTAATCCGTATTTGTA (site CATTGCACTTA) | 0.726
CATTGGACATGGACCGGTTTTCCCGGTAATCCGTATTTGCC (site CATTGGACTGG) | 1.73

Source: the supplement of paper PMC11208160
